Molecules are shown by their SMILES. Where only a bound is given, the exact number is not on record here.

The target in test [1] is T1, CX3CR1 (Homo sapiens (Human), UniProt P49238). In words: hCX3CR1 [3H]-AZD8797 competitive binding assay (filter). The conditions noted are these: CHO-hCX3CR1 membranes, 2 nM [3H]-AZD8797. Summed up:
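CHO-hCX3CR1 membranes (9 μg/well) were incubated 2 h at room temperature with 2 nM [3H]-AZD8797 and varying competitor concentrations. Buffer: 25 mM HEPES pH 7.4, 10 mM MgCl2, 1 mM CaCl2, 0.5% BSA, 1% DMSO. Bound ligand was collected by vacuum filtration, washed in ice-cold buffer with 500 mM NaCl, and counted by scintillation.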

The target in test [2] is T1, CX3CR1. In words: hCX3CR1 [125I]-CX3CL1 displacement binding (SPA). The conditions noted are these: CHO-hCX3CR1 membranes, [125I]-CX3CL1, SPA beads. The procedure:
hCX3CR1 [^125I]-CX3CL1 Displacement Binding (SPA)
CHO-hCX3CR1 membranes (3 μg per well) together with […] [^125I]-CX3CL1 (Perkin Elmer) and different concentrations of competitor compound were incubated together with 400 μg/well WGA coated PVT SPA beads (Perkin Elmer) in 50 mM HEPES (pH 7.4), 10 mM MgCl2, 1 mM EDTA and 0.1% Gelatin in a Greiner polystyrene flat-bottom 384-well plate. The plate was incubated for 20 h at room temperature before the radioactivity was measured using a MicroBeta Trilux reader (PerkinElmer). The DMSO concentration was held constant at 1%.

The target of test [3] is T1, CX3CR1. Nature of the test: CX3CR1-dependent cell adhesion to recombinant CX3CL1 in human whole blood under flow. Format: cell-based. The conditions noted are these: recombinant full-length CX3CL1. The procedure:
(§1) Adhesion of cells to recombinant full-length human CX3CL1 was monitored under physiological flow using a Cellix VenaFlux microfluidics platform with connected fluorescent microscope and camera, and using Vena8 Fluoro+ Biochips (Cellix) pre-coated with anti-His monoclonal antibody (25 μg/mL; R&D Systems) and His-tagged full-length CX3CL1 (15 μg/mL; R&D Systems).
CX3CR1-Dependent Cell Adhesion to Recombinant CX3CL1 in Human Whole Blood Under Flow
Human whole blood from healthy volunteers was collected using heparin as anti-coagulant. […] Compound stocks or DMSO vehicle were added to 0.5 or 1.0 ml aliquots of blood such that the final concentration of DMSO was 0.1%, corresponding to a 1000-fold dilution of compound stock. Blood was pre-incubated with compound at room temperature for 60 minutes with gentle shaking. DiOC6 (Invitrogen, 5 μM) or Hoechst 33342 (Invitrogen, 300 μM) dye was subsequently added to fluorescently label cells and enable their detection during the flow adhesion assay. To monitor adhesion, blood was allowed to flow through the channels of a Vena8 Fluoro+ biochip at 2.25 dynes per cm^2 for 3-6 minutes prior to capturing images for quantification. Fluorescent cells adhering to the channels were counted and the mean and/or total count across five to six images in each channel were used for calculating concentration-response curves.

Test [4] concerns the target T1, CX3CR1. Nature of the test: Flow adhesion for human B-lymphocyte cell line RPMI-8226. Format: cell-based. The conditions noted are these: RPMI-8226 cells under flow, recombinant full-length CX3CL1. The procedure: as §1
Flow Adhesion for Human B-Lymphocyte Cell Line RPMI-8226
Cells were cultured in RPMI 1640 medium with GlutaMAX and 20% FBS (HyClone, Perbio). Before each experiment, cells were centrifuged at 320 g and resuspended to 5×10^6 cells per ml in RPMI 1640 with 1% FBS. Cells were pre-incubated for 15 minutes at room temperature with CX3CR1 antagonist in an 8-step 3-fold dilution series starting at 3.3 μM. DMSO concentration was kept constant for all antagonist concentrations at 0.1%. Cells were pumped through the channels of the Vena8 Fluoro+ biochip at 0.5 dynes per cm2 for 3 m prior to capturing microscope images for quantification. Cells adhering to channels were counted and the mean values across five images in each channel were used for calculating the concentration-response curves.

T1 sequence (P49238 whole entry): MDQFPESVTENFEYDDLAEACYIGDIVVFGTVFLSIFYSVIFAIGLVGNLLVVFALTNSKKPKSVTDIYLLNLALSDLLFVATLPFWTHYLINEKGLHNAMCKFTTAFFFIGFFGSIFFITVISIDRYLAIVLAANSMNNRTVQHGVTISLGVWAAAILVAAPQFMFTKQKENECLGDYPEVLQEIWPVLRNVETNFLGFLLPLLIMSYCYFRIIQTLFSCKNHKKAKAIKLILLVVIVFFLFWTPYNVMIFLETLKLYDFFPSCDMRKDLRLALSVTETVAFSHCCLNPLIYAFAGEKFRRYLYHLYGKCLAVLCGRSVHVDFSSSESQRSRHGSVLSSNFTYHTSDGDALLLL

Turning to `CC(C)C[C@H](CO)Nc1nc(C[C@@H](C)c2cccc(Cl)c2F)nc(NS(C)(=O)=O)n1` (single isomer, unassigned) [Example 4, N-(4-((R*)-2-(3-Chloro-2-fluorophenyl)propyl)-6-(((R)-1-hydroxy-4-methylpentan-2-yl)amino)-1,3,5-triazin-2-yl)methanesulfonamide], the half-inhibitory concentration (IC50) on CX3CR1 [1] came to 17 nM; on CX3CR1 [2] it was 68 nM; at CX3CR1 [3], 499 nM.

In the case of `CC(C)C[C@H](CO)Nc1nc(C[C@@H](C)c2ccc(F)cc2F)nc(NS(C)(=O)=O)n1` (single isomer, unassigned) [Example 6, N-(4-((R*)-2-(2,4-Difluorophenyl)propyl)-6-(((R)-1-hydroxy-4-methylpentan-2-yl)amino)-1,3,5-triazin-2-yl)methanesulfonamide], the concentration for half-maximal inhibition (IC50) on CX3CR1 [1] was 96 nM; at CX3CR1 [2], 948 nM; on CX3CR1 [3], 109 nM.

As to `CC(C)C[C@H](CO)Nc1nc(C[C@@H](C)c2cnc(C3CC3)nc2)nc(NS(C)(=O)=O)n1` (single isomer, unassigned) [Example 12, N-(4-((R*)-2-(2-Cyclopropylpyrimidin-5-yl)propyl)-6-(((R)-1-hydroxy-4-methylpentan-2-yl)amino)-1,3,5-triazin-2-yl)methanesulfonamide], the IC50 amounted to 176 nM on CX3CR1 [1], 1860 nM on CX3CR1 [2] and 255 nM at CX3CR1 [4].

With `COc1ccc([C@@H](C)Cc2nc(N[C@@H](CO)CC(C)C)nc(NS(C)(=O)=O)n2)cn1` (single isomer, unassigned) [Example 75, N-(4-(((R)-1-Hydroxy-4-methylpentan-2-yl)amino)-6-((S*)-2-(6-methoxypyridin-3-yl)propyl)-1,3,5-triazin-2-yl)methanesulfonamide], the IC50 is 2700 nM on CX3CR1 [1], 5180 nM at CX3CR1 [2] and above 3000 nM at CX3CR1 [4].

For `COc1ccc([C@H](C)Cc2nc(N[C@@H](CO)CC(C)C)nc(NS(C)(=O)=O)n2)cn1` (single isomer, unassigned) [Example 76, N-(4-(((R)-1-Hydroxy-4-methylpentan-2-yl)amino)-6-((R*)-2-(6-methoxypyridin-3-yl)propyl)-1,3,5-triazin-2-yl)methanesulfonamide], the concentration for half-maximal inhibition (IC50) on CX3CR1 [1] came to 48 nM; on CX3CR1 [2], 886 nM; on CX3CR1 [4], 158 nM.

Regarding `CC(C)C[C@H](CO)Nc1nc(C[C@@H](C)c2ccc(F)cc2)nc(NS(C)(=O)=O)n1` (single isomer, unassigned) [Example 79, N-(4-((R*)-2-(4-Fluorophenyl)propyl)-6-(((R)-1-hydroxy-4-methylpentan-2-yl)amino)-1,3,5-triazin-2-yl)methanesulfonamide], the IC50 turned out to be 198 nM on CX3CR1 [1], 2470 nM on CX3CR1 [2] and 54 nM on CX3CR1 [4].

For the molecule `COc1ccc([C@H](C)Cc2nc(N[C@@H](CO)CC(C)C)nc(NS(C)(=O)=O)n2)c(F)c1` (single isomer, unassigned) [Example 81, N-(4-((R*)-2-(2-Fluoro-4-methoxyphenyl)propyl)-6-(((R)-1-hydroxy-4-methylpentan-2-yl)amino)-1,3,5-triazin-2-yl)methanesulfonamide], the IC50 on CX3CR1 [1] came to 49 nM; on CX3CR1 [2], 470 nM; on CX3CR1 [3], 3080 nM; on CX3CR1 [4], 14 nM.

Turning to `COc1ccc([C@@H](C)Cc2nc(N[C@@H](CO)CC(C)C)nc(NS(C)(=O)=O)n2)c(F)c1` (single isomer, unassigned) [Example 82, N-(4-((S*)-2-(2-Fluoro-4-methoxyphenyl)propyl)-6-(((R)-1-hydroxy-4-methylpentan-2-yl)amino)-1,3,5-triazin-2-yl)methanesulfonamide], the IC50 was found to be 128 nM on CX3CR1 [1], 566 nM on CX3CR1 [2] and 11 nM on CX3CR1 [4].

On to `CC(C)C[C@H](CO)Nc1nc(C[C@H](C)c2ccc(Cl)cc2F)nc(NS(C)(=O)=O)n1` (single isomer, unassigned) [Example 83, N-(4-((S*)-2-(4-Chloro-2-fluorophenyl)propyl)-6-(((R)-1-hydroxy-4-methylpentan-2-yl)amino)-1,3,5-triazin-2-yl)methanesulfonamide], for which the IC50 on CX3CR1 [1] is 156 nM; at CX3CR1 [2], 424 nM; on CX3CR1 [3], 1290 nM.

Consider `CC(C)C[C@H](CO)Nc1nc(C[C@H](C)c2cccc(F)c2F)nc(NS(C)(=O)=O)n1` (single isomer, unassigned) [Example 143, N-(4-((S*)-2-(2,3-Difluorophenyl)propyl)-6-(((R)-1-hydroxy-4-methylpentan-2-yl)amino)-1,3,5-triazin-2-yl)methanesulfonamide], for which the IC50 at CX3CR1 [1] is 156 nM; at CX3CR1 [2], 430 nM; at CX3CR1 [4], 522 nM.

As for `CC(C)C[C@H](CO)Nc1nc(C[C@H](C)c2ccccc2F)nc(NS(C)(=O)=O)n1` (single isomer, unassigned) [Example 145, N-(4-((S*)-2-(2-Fluorophenyl)propyl)-6-(((R)-1-hydroxy-4-methylpentan-2-yl)amino)-1,3,5-triazin-2-yl)methanesulfonamide], the IC50 on CX3CR1 [1] was found to be 129 nM; on CX3CR1 [2], 637 nM; at CX3CR1 [3] it was 543 nM; on CX3CR1 [4], 28 nM.

In the case of `CC(C)C[C@H](CO)Nc1nc(C[C@@H](C)c2ccccc2F)nc(NS(C)(=O)=O)n1` (single isomer, unassigned) [Example 146, N-(4-((R*)-2-(2-Fluorophenyl)propyl)-6-(((R)-1-hydroxy-4-methylpentan-2-yl)amino)-1,3,5-triazin-2-yl)methanesulfonamide], the IC50 at CX3CR1 [1] was determined as 23 nM; at CX3CR1 [2], 180 nM; on CX3CR1 [3] it was 233 nM; on CX3CR1 [4], 11 nM.

Consider `CC(C)C[C@H](CO)Nc1nc(C[C@@H](C)c2ccccc2)nc(NS(C)(=O)=O)n1` (single isomer, unassigned) [Example 148, N-(4-(((R)-1-Hydroxy-4-methylpentan-2-yl)amino)-6-((R*)-2-phenylpropyl)-1,3,5-triazin-2-yl)methanesulfonamide], for which the IC50 on CX3CR1 [1] came to 37 nM; on CX3CR1 [2], 484 nM; at CX3CR1 [3] it was 326 nM; on CX3CR1 [4], 37 nM.

With `CC(C)C[C@H](CO)Nc1nc(C[C@H](C)c2ccc(Cl)cn2)nc(NS(C)(=O)=O)n1` (single isomer, unassigned) [Example 149, N-(4-((S*)-2-(5-Chloropyridin-2-yl)propyl)-6-(((R)-1-hydroxy-4-methylpentan-2-yl)amino)-1,3,5-triazin-2-yl)methanesulfonamide], the half-maximal inhibitory concentration (IC50) at CX3CR1 [2] and on CX3CR1 [3] was above 30000 nM each time.

`CC(C)C[C@H](CO)Nc1nc(C[C@@H](C)c2ccc(Cl)cn2)nc(NS(C)(=O)=O)n1` (single isomer, unassigned) [Example 150, N-(4-((R*)-2-(5-Chloropyridin-2-yl)propyl)-6-(((R)-1-hydroxy-4-methylpentan-2-yl)amino)-1,3,5-triazin-2-yl)methanesulfonamide]: the half-inhibitory concentration (IC50) was found to be 185 nM on CX3CR1 [1], 1530 nM on CX3CR1 [2] and 1600 nM on CX3CR1 [3].

Usually IC50 stands for the point on the concentration scale where inhibition reaches its midpoint.
